# Experimental data published in ChEMBL document CHEMBL3526033, “Identification of human liver cytochrome P450 enzymes involved in the metabolism of SCH 530348 (Vorapaxar), a potent oral thrombin protease-activated receptor 1 antagonist” (Drug Metab Dispos, 2011).
# Legend:
# Type in all cases: ADME
# [1] = test system: Liver microsome; assay: Drug metabolism in human liver microsomes assessed as (3R,3aS,4S,4aR,7R,8aR,9aR)-7-amino-4-((E)-2-(5-(3-fluorophenyl)pyridin-2-yl)vinyl)-3-methyldecahydronaphtho[2,3-c]furan-1(3H)-one formation at 10 to 25 uM after 120 mins by LC-MS/MS analysis in presence of CYP2B6-specific inhibitory antibody; conditions: 2 h
# [2] = test system: Liver microsome; assay: Drug metabolism in human liver microsomes assessed as 2-hydroxyethyl (1R,3aR,4aR,6R,8aR,9S,9aS)-9-((E)-2-(5-(3-fluorophenyl)pyridin-2-yl)vinyl)-1-methyl-3-oxododecahydronaphtho[2,3-c]furan-6-ylcarbamate formation at 25 uM after 120 mins by LC-MS/MS analysis; conditions: 2 h
# [3] = test system: Liver microsome; assay: Drug metabolism in human liver microsomes assessed as 2-hydroxyethyl (1R,3aR,4aR,6R,8aR,9S,9aS)-9-((E)-2-(5-(3-fluorophenyl)pyridin-2-yl)vinyl)-1-methyl-3-oxododecahydronaphtho[2,3-c]furan-6-ylcarbamate formation at 25 uM after 120 mins by LC-MS/MS analysis in presence of astemizole; conditions: 2 h
# [4] = target: CYP2B6 (Homo sapiens, UniProt P20813); assay: Activity of human recombinant CYP2B6 assessed as enzyme-mediated drug metabolism at 10 uM after 120 mins by LC-MS/MS analysis in presence of NADPH; conditions: read-out: Compound recovery
# [5] = target: Cytochrome P450 3A4 (Homo sapiens, UniProt P08684); assay: Drug metabolism in human liver microsomes assessed as CYP3A4-mediated (3R,3aS,4S,4aR,7R,8aR,9aR)-7-amino-4-((E)-2-(5-(3-fluorophenyl)pyridin-2-yl)vinyl)-3-methyldecahydronaphtho[2,3-c]furan-1(3H)-one formation at 25 uM after 120 mins by LC-MS/MS analysis; conditions: 2 h
# [6] = target: Cytochrome P450 4A11 (Homo sapiens, UniProt Q02928); assay: Activity of human recombinant CYP4A11 assessed as enzyme-mediated drug metabolism treated with 25 uM vorapaxar after 120 mins by LC-MS/MS analysis in presence of NADPH; conditions: 2 h
# [7] = target: Cytochrome P450 2E1 (Homo sapiens, UniProt P05181); assay: Activity of human recombinant CYP2E1 assessed as enzyme-mediated 2-hydroxyethyl (1R,3aR,4aR,6R,8aR,9S,9aS)-9-((E)-2-(5-(3-fluorophenyl)pyridin-2-yl)vinyl)-1-methyl-3-oxododecahydronaphtho[2,3-c]furan-6-ylcarbamate formation at 25 uM after 120 mins by LC-MS/MS analysis in presence of NADPH; conditions: 2 h
# [8] = target: T1, Cytochrome P450 4F3 (Homo sapiens, UniProt Q08477); assay: Activity of human recombinant CYP4F3A assessed as enzyme-mediated 2-hydroxyethyl (1R,3aR,4aR,6R,8aR,9S,9aS)-9-((E)-2-(5-(3-fluorophenyl)pyridin-2-yl)vinyl)-1-methyl-3-oxododecahydronaphtho[2,3-c]furan-6-ylcarbamate formation at 25 uM after 120 mins by LC-MS/MS analysis in presence of NADPH; conditions: 2 h
# T1 sequence (Q08477 whole entry): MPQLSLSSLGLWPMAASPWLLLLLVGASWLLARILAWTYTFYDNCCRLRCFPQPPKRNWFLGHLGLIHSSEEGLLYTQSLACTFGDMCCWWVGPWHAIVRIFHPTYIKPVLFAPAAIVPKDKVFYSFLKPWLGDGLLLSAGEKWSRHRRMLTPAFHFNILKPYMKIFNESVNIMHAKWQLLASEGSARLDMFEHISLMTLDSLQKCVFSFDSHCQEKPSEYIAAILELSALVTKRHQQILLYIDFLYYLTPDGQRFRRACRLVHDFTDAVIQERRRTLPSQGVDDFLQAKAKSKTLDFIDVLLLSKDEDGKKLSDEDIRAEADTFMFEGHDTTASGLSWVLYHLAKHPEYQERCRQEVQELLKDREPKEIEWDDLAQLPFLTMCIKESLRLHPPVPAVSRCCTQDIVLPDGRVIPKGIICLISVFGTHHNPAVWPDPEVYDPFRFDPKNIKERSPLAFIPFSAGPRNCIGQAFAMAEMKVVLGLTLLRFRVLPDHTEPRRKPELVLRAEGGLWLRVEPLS
# [9] = target: T2, Cytochrome P450 2J2 (Homo sapiens, UniProt P51589); assay: Activity of human recombinant CYP2J2 assessed as enzyme-mediated 2-hydroxyethyl (1R,3aR,4aR,6R,8aR,9S,9aS)-9-((E)-2-(5-(3-fluorophenyl)pyridin-2-yl)vinyl)-1-methyl-3-oxododecahydronaphtho[2,3-c]furan-6-ylcarbamate formation at 25 uM after 120 mins by LC-MS/MS analysis in presence of NADPH; conditions: 2 h
# T2 sequence (P51589 whole entry): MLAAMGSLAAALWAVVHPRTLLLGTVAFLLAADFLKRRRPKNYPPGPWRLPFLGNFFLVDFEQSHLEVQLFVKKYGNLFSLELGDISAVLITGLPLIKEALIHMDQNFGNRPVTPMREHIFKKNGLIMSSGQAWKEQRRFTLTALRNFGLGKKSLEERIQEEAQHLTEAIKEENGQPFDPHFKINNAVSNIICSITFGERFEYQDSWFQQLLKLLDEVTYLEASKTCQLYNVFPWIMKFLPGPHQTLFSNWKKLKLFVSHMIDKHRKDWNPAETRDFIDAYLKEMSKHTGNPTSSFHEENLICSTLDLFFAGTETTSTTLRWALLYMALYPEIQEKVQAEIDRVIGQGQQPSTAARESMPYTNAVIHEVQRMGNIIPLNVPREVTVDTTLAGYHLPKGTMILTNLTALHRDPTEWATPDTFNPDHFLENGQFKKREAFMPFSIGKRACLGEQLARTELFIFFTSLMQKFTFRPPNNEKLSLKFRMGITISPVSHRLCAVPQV
# [10] = target: T3, Cytochrome P450 1A1 (Homo sapiens, UniProt P04798); assay: Activity of human recombinant CYP1A1 assessed as enzyme-mediated drug metabolism at 10 uM after 120 mins by LC-MS/MS analysis; conditions: 2 h
# T3 sequence (P04798 whole entry): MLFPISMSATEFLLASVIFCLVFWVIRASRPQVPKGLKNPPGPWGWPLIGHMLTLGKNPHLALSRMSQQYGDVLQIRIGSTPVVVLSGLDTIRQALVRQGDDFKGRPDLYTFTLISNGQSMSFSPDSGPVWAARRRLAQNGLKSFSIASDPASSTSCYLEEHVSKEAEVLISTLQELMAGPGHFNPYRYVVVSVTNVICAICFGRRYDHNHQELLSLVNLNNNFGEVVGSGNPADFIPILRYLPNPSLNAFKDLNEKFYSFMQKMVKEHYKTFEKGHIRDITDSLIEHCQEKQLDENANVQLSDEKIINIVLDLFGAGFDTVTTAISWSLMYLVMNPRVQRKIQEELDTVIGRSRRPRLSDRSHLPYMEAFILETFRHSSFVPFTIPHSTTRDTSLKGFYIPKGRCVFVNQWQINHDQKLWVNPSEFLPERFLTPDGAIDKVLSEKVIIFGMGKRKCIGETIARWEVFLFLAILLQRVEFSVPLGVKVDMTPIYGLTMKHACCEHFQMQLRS
# Cytochrome P450 3A4, sequence (P08684 whole entry): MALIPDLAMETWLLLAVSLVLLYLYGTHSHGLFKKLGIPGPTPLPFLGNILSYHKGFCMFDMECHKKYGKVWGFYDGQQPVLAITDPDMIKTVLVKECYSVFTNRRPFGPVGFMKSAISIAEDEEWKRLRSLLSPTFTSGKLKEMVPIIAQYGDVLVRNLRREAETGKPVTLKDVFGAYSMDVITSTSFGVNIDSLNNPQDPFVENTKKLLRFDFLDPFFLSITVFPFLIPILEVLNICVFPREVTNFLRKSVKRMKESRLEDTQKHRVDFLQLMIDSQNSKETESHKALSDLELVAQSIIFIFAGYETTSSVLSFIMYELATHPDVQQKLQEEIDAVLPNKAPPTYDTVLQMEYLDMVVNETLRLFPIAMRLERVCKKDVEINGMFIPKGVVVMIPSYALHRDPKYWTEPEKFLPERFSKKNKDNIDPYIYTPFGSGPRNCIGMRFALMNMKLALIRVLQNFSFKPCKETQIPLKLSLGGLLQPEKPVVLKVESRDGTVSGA
# Cytochrome P450 4A11, sequence (Q02928 whole entry): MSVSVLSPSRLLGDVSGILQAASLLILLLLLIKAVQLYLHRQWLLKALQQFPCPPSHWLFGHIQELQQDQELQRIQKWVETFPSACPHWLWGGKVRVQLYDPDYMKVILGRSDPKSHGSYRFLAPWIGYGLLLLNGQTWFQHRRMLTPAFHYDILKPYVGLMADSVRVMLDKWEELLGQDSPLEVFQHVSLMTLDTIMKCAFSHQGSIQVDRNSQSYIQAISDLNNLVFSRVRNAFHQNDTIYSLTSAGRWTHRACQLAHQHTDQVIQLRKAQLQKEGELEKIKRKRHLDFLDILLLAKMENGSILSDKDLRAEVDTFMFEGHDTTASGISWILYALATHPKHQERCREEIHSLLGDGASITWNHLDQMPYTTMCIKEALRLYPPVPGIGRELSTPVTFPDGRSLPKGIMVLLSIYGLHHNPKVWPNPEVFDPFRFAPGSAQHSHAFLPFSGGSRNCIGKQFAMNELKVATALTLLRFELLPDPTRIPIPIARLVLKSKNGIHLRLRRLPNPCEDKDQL
# CYP2B6, sequence (P20813 whole entry): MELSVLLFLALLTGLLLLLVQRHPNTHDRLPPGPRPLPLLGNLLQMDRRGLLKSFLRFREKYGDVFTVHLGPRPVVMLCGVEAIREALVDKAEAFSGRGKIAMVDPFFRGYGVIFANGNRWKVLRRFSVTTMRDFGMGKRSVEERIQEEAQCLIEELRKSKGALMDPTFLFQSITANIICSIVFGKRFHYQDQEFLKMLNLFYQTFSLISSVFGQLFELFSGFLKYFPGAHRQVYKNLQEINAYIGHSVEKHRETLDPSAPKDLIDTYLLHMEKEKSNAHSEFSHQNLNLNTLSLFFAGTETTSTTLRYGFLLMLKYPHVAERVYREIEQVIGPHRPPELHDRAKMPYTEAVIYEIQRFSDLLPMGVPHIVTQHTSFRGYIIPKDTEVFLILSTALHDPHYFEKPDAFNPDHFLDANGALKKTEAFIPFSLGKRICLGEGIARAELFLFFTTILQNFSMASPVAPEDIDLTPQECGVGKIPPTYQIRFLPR
# Cytochrome P450 2E1, sequence (P05181 whole entry): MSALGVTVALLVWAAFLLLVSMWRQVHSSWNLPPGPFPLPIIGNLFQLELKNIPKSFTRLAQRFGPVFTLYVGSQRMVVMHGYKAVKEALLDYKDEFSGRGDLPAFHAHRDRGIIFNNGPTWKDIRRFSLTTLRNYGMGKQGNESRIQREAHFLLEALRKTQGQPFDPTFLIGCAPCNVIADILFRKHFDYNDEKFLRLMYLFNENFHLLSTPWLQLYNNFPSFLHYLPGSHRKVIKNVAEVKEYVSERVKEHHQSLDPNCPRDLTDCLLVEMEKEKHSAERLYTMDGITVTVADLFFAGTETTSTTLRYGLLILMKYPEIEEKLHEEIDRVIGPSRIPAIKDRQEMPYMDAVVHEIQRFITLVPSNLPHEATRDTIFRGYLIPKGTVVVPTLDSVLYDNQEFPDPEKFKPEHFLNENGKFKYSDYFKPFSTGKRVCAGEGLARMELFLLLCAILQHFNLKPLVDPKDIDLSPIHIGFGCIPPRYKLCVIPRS
compound,measurement,setting,value
CCOC(=O)N[C@@H]1CC[C@@H]2[C@@H](C1)C[C@H]1C(=O)O[C@H](C)[C@H]1[C@H]2/C=C/c1ccc(-c2cccc(F)c2)cn1 [VORAPAXAR],Drug metabolism,[1],metabolite_detected
same,Drug metabolism,[2],metabolite_not_detected
same,Drug metabolism,[3],metabolite_not_detected
same,"remaining at 2 h, 10 µM",[4],97.7%
C[C@H]1OC(=O)[C@@H]2C[C@@H]3C[C@H](NC(=O)OCCO)CC[C@H]3[C@H](/C=C/c3ccc(-c4cccc(F)c4)cn3)[C@H]12,Drug metabolism,[5],metabolite_detected
same,Drug metabolism,[6],metabolite_detected
CCOC(=O)N[C@@H]1CC[C@@H]2[C@@H](C1)C[C@H]1C(=O)O[C@H](C)[C@H]1[C@H]2/C=[14CH]/c1ccc(-c2cccc(F)c2)cn1,Drug metabolism,[7],metabolite_detected
same,Drug metabolism,[8],metabolite_detected
same,Drug metabolism,[9],metabolite_detected
same,Drug metabolism,[10],metabolite_not_detected
